The source of these data is US6656911B2, “Serine protease inhibitors” (Cortech, Inc., priority 1994, dated 2003).

The term Ki denotes the equilibrium dissociation constant of an inhibitor or competing ligand from its target.

The assay concerns the target T1, human neutrophil elastase (HNE) (Homo sapiens, UniProt P08246).
T1 sequence (P08246 30-267): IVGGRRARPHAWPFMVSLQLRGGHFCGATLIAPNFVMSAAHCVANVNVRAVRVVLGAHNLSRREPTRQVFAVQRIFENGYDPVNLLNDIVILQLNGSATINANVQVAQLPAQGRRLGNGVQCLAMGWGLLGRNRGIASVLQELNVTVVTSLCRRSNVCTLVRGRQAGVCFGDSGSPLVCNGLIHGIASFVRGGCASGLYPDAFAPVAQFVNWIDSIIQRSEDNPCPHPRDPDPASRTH
Kind of assay: HNE Ki of CE compounds, tested as described in WO 96/16080. To be noted: read-out: HNE Ki. It is filed as biochemical.
Take `CC(C)[C@H](NC(=O)CN1CCCC(NC(=O)OCc2ccccc2)C1=O)C(=O)c1noc(Cc2cccc(C(F)(F)F)c2)n1` (stereo partly drawn) [CE2160, 3-(R,S)-[(Benzyloxycarbonyl)amino-δ-lactam]-N-[1-(3-[5-(3-trifluoromethylbenzyl)-1,2,4-oxadiazolyl]carbonyl)-2-(S)-methylpropyl]acetamide]: the Ki worked out at 260 nM. As for `Cc1cccc(Cc2nnc(C(=O)[C@@H](NC(=O)Cn3c(=O)[nH]n(-c4ccccc4)c3=O)C(C)C)o2)c1` [CE2166, 1-Phenyl-1,2,4-triazolidine-3,5-dione-N-[1-(2-[5-(3-methylbenzyl)-1,3,4-oxadiazolyl]carbonyl)-2-(S)-methylpropyl]acetamide], the inhibition constant (Ki) stood at 145 nM. Next, `Cc1cccc(Cc2nnc(C(=O)[C@@H](NC(=O)[C@@H]3CCCN3C(=O)[C@@H](NS(=O)(=O)c3ccccc3)C(C)C)C(C)C)o2)c1` [CE2168, Phenylsulfonyl-L-valyl-N-[1-(2-[5-(3-methylbenzyl)-1,3,4-oxadiazolyl]carbonyl)-2-(S)-methylpropyl]-L-prolinamide]: 0.15 nM. With `Cc1cccc(Cc2nnc(C(=O)[C@@H](NC(=O)OCc3ccccc3)C(C)C)o2)c1` [CE2170] the figure was 297 nM; with `CC(C)[C@H](NC(=O)[C@@H]1CCCN1C(=O)[C@@H](NC(=O)c1cccnc1)C(C)C)C(=O)c1noc(Cc2cccc(C(F)(F)F)c2)n1` [CE2171, (3-Pyridylcarbonyl)-L-valyl-N-[1-(3-[5-(3-trifluoromethylbenzyl)-1,2,4-oxadiazolyl]carbonyl)-2-(S)-methylpropyl]-L-prolinamide], 0.64 nM. With `Cc1cccc(Cc2nnc(C(=O)[C@@H](NC(=O)Cn3c(=O)[nH]n(Cc4ccccc4)c3=O)C(C)C)o2)c1` [CE2176, 1-Benzyl-1,2,4-triazolidine-3,5-dione-N-[1-(2-[5-(3-methylbenzyl)-1,3,4-oxadiazolyl]carbonyl)-2-(S)-methylpropyl]acetamide] the figure was 52 nM; with `CC(C)C(NC(=O)CN1C(=O)C(Cc2ccccc2)N(CCN2CCOCC2)C1=O)C(=O)c1noc(Cc2cccc(C(F)(F)F)c2)n1` [CE2180, 1-(N-Morpholinoethyl)-5-(R)-benzyl-2,4-imidazolidinedione-N-[1-(3-[5-(3-trifluoromethylbenzyl)-1,2,4-oxadiazolyl]carbonyl)-2-(R,S)-methylpropyl]acetamide], 44 nM; with `CC(C)C(NC(=O)CN1C(=O)C(Cc2ccccc2)N(CCN2CCOCC2)C1=O)C(=O)c1noc(Cc2cccc(C(F)(F)F)c2)n1` [CE2181, 1-(N-Morpholinoethyl)-5-(S)-benzyl-2,4-imidazolidinedione-N-[1-(3-[5-(3-trifluoromethylbenzyl)-1,2,4-oxadiazolyl]carbonyl)-2-(R,S)-methylpropyl]acetamide], 46 nM. As to `CC(C)C(NC(=O)CN1C(=O)C(c2ccccc2)N(C)C1=O)C(=O)c1noc(Cc2cccc(C(F)(F)F)c2)n1` [CE2182, 5-(R,S)-Phenyl-1-methyl-2,4-imidazolidinedione-N-[1-(3-[5-(3-trifluoromethylbenzyl)-1,2,4-oxadiazolyl]carbonyl)-2-(S)-methylpropyl]acetamide], the Ki amounted to 54 nM. Next, `Cc1cccc(Cc2nnc(C(=O)C(NC(=O)C3Cc4ccccc4CN3C(=O)C(NC(=O)OCc3ccccc3)C(C)C)C(C)C)o2)c1` [CE2183, Benzyloxycarbonyl-L-valyl-(1,2,3,4-tetrahydroisoquinoline)-3-N-[1-(2-[5-(3-methylbenzyl)-1,3,4-oxadiazolyl]carbonyl)-2-(R,S)-methylpropyl]amide]: 0.23 nM.

With `CC(C)[C@H](NC(=O)[C@@H]1CCCN1C(=O)[C@@H](NC(=O)OCc1ccncc1)C(C)C)C(=O)c1noc(Cc2cccc(C(F)(F)F)c2)n1` [CE2185, 4-Pyridylmethyleneoxycarbonyl-L-valyl-N-[1-(3-[5-(3-trifluoromethylbenzyl)-1,2,4-oxadiazolyl]carbonyl)-2-(S)-methylpropyl]-L-prolinamide], the Ki stood at 0.27 nM. For `Cc1cccc(Cc2nnc(C(=O)[C@@H](NC(=O)[C@@H]3CCCN3C(=O)[C@@H](NC(=O)OCc3ccncc3)C(C)C)C(C)C)o2)c1` [CE2186, 4-Pyridylmethyleneoxycarbonyl -L-valyl-N-[1-(2-[5-(3-methylbenzyl)-1,3,4-oxadiazolyl]carbonyl)-2-(S)-methylpropyl]-L-prolinamide], the Ki is 0.037 nM.

Consider `CC(C)[C@H](NC(=O)CN1C(=O)CN(Cc2ccc3c(c2)OCCO3)C(=O)[C@@H]1Cc1ccccc1)C(=O)c1noc(Cc2cccc(C(F)(F)F)c2)n1` [CE2187], for which the Ki is 42 nM. With `CC(C)[C@H](NC(=O)CN1C(=O)CN(Cc2ccccc2)C1=O)C(=O)c1noc(Cc2cccc(C(F)(F)F)c2)n1` [CE2189, 1-Benzyl-2,4-imidazolidinedione-N-[1-(3-[5-(3-trifluoromethylbenzyl)-1,2,4-oxadiazolyl]carbonyl)-2-(S)-methylpropyl]acetamide] the figure was 99 nM; with `Cc1cccc(Cc2nnc(C(=O)[C@@H](NC(=O)CN3C(=O)CN(C(=O)OCc4ccccc4)C[C@H]3Cc3ccccc3)C(C)C)o2)c1` [CE2190, [1-Benzyloxycarbonyl-5-(R)-benzylpipeazin-3-one]-N-[1-(2-[5-(3-methylbenzyl)-1,3,4-oxadiazolyl]carbonyl)-2-(S)-methylpropyl]acetamide], 29 nM; with `CC(C)C(NC(=O)CN1C(=O)C(c2ccccc2)N(CCN2CCOCC2)C1=O)C(=O)c1noc(Cc2cccc(C(F)(F)F)c2)n1` [CE2193, 1-(N-Morpholinoethyl)-5-(R,S)-phenyl-2,4-imidazolidindione-N-[1-(3-[5-(3-trifluoromethylbenzyl)-1,2,4-oxadiazolyl]carbonyl)-2-(R,S)-methylpropyl]acetamide], 36 nM. With `Cc1cccc(Cc2nnc(C(=O)[C@@H](NC(=O)CN(C(=O)c3ccc[nH]3)C3CCc4ccccc43)C(C)C)o2)c1` (stereo partly drawn) [CE2195, (Pyrrole-2-carbonyl)-N-[1-(R,S)-indanyl]glycyl-N-[1-(2-[5-(3-methylbenzyl)-1,3,4-oxadiazolyl]carbonyl)-2-(S)-methylpropyl]amide], the Ki amounted to 10.6 nM. Next, `Cc1cccc(Cc2nnc(C(=O)C(NC(=O)CN3C(=O)CNCC3Cc3ccccc3)C(C)C)o2)c1` [CE2196, (6-(R)-Benzylpiperazin-2-one)-N-[1-(2-[5-(3-methylbenzyl)-1,3,4-oxadiazolyl]carbonyl)-2-(R,S)-methylpropyl]acetamide]: 96 nM. For the compound `Cc1cccc(Cc2nnc(C(=O)[C@@H](NC(=O)CN3C(=O)CN(Cc4ccc5c(c4)OCCO5)C(=O)[C@H]3Cc3ccccc3)C(C)C)o2)c1` [CE2197, 4-[1-(3,4-Ethylenedioxybenzyl)-3-(R)-benzylpiperazine-2,5-dione]-N-[1-(2-[5-(3-methylbenzyl)-1,3,4-oxadiazolyl]carbonyl)-2-(S)-methylpropyl]acetamide], the Ki was determined as 4.8 nM. With `CC(C)[C@H](NC(=O)CN1C(=O)NC(c2ccccc2)C1=O)C(=O)c1noc(Cc2cccc(C(F)(F)F)c2)n1` (stereo partly drawn) [CE2198, 4-(R,S)-Phenyl-2,5-imidazolidinedione-N-[1-(3-[5-(3-trifluoromethylbenzyl)-1,2,4-oxadiazolyl]carbonyl)-2-(S)-methylpropyl]acetamide] the figure was 3.1 nM; with `CC(C)[C@H](NC(=O)CN1C(=O)NC(c2ccc(N(C)C)cc2)C1=O)C(=O)c1noc(Cc2cccc(C(F)(F)F)c2)n1` (stereo partly drawn) [CE2200, [4-(R,S)-(4-Dimethylaminophenyl)]-2,5-imidazolidinedione-N-[1-(3-[5-(3-trifluoromethylbenzyl)-1,2,4-oxadiazolyl]carbonyl)-2-(S)-methylpropyl]acetamide], 13.7 nM; with `Cc1cccc(Cc2nnc(C(=O)[C@@H](NC(=O)[C@@H]3CCCN3C(=O)[C@@H](NC(=O)OC(C)C)C(C)C)C(C)C)o2)c1` [CE2202, Isopropyloxycarbonyl-L-valyl-N-[1-(2-[5-(3-methylbenzyl)-1,3,4-oxadiazolyl]carbonyl)-2-(S)-methylpropyl]-L-prolinamide], 0.12 nM.

Turning to `Cc1cccc(Cc2nnc(C(=O)C(NC(=O)CN3CC(=O)NC[C@H]3c3ccccc3)C(C)C)o2)c1` (stereo partly drawn) [CE2208, (2-(R)-Phenylpiperazin-5-one)-N-[1-(2-[5-(3-methylbenzyl)-1,3,4-oxadiazolyl]carbonyl)-2-(R,S)-methylpropyl]acetamide], the Ki is 40 nM.

On to `Cc1cccc(Cc2nnc(C(=O)[C@@H](NC(=O)CN(Cc3ccccc3)C(=O)Cc3ccccc3)C(C)C)o2)c1` [CE2210, (N-Benzylcarbonyl)-N-(benzyl)glycyl-N-[1-(2-[5-(3-methylbenzyl)-1,3,4,-oxadiazolyl]carbonyl)-2-(S)-methylpropyl]amide], for which the Ki was 22.7 nM. With `Cc1cccc(Cc2nnc(C(=O)[C@@H](NC(=O)CN3CCC(n4c(=O)[nH]c5ccccc54)CC3)C(C)C)o2)c1` [CE2212, 3-[1-(4-Piperidine)]-benzimidazolidin-2-one-N-[1-(2-[5-(3-methylbenzyl)-1,3,4-oxadiazolyl]carbonyl)-2-(S)-methylpropyl]acetamide] the figure was 124 nM; with `CC(C)[C@H](NC(=O)CN1Cc2ccccc2NC1=O)C(=O)c1noc(Cc2cccc(C(F)(F)F)c2)n1` [CE2219, 1,4-Quinazolin-2-one-N-[1-(3-[5-(3-trifluoromethylbenzyl)-1,2,4-oxadiazolyl]carbonyl)-2-(S)-methylpropyl]acetamide], 537 nM; with `Cc1cccc(Cc2nc(C(=O)C(NC(=O)[C@@H]3Cc4cccc5c4N3C(=O)[C@@H](N)CC5)C(C)C)no2)c1` (stereo partly drawn) [CE2220, (2S,5S)-5-Amino-1,2,4,5,6,7-hexahydroazepino-[3.2.1]-indole-4-one-carbonyl-N-[1-(3-[5-(3-methylbenzyl)-1,2,4-oxadiazolyl]carbonyl)-2-(R,S)-methylpropyl]amide], 52 nM.
